*1 amine or outer side, *2 acyl side, *3 side chain or, on linkers, in order; H or OH if unused. Where a SMILES comes first, the peptide text is derived from it. [ ]: non-standard residue; d: D form. azaPhe = O=C(N(Cc1ccccc1)N[*:1])[*:2]; azaPro = O=C(N1CCCN1[*:1])[*:2]
Experiments:
[1] = In vitro peptide stability in human plasma; format: in vitro ADME; details: after 24 h incubation at 37° C. in fresh human plasma; HPLC peak area vs sample incubated in PBS; read-out: % of intact peptide in human plasma
Method: (§1) Peptides were prepared as a 1 μg/μl solution in water. 20 μl of the peptide solution was diluted in 80 μl of fresh human plasma or 10% rat brain homogenate (prepared in PBS). The resulting solution was incubated at 37° C. for different times and the reaction was stopped by adding a complete cocktail of protease inhibitors. The bulk of plasma and brain proteins (but none of the peptide) were precipitated in cold methanol (mix/MeOH, 4/5, v/v) during one hour at −20° C. The precipitated proteins were pelleted by centrifugation (10000 g, 10 min, 4° C.). The supernatant, containing the peptide, was concentrated 5 times under vacuum and separated by reverse-phase HPLC. The area of the peak corresponding to the intact peptide was measured and compared with an equivalent sample incubated in PBS. The results are listed in Table 1 as percentage of intact peptide after 24 h incubation at 37° C. in human plasma and in rat brain homogenate. The values compare favourably with those obtained for the reference compound of Example 8.

[2] = In vitro peptide stability in rat brain homogenate; format: in vitro ADME; details: after 24 h incubation at 37° C. in 10% rat brain homogenate; HPLC peak area vs sample incubated in PBS; read-out: % of intact peptide in rat brain homogenate
Method: as §1

| remaining at 24 h, 0.2 μg/μl [1] [%] | remaining at 24 h, 0.2 μg/μl [2] [%] | Molecule |
| --- | --- | --- |
| 74 | 2 | Ac-LPFFD-NH2 [Example 8, reference compound] |
| 93 | 80 | CC(=O)N[C@@H](CC(C)C)C(=O)N1CCCN1C(=O)N[C@@H](Cc1ccccc1)C(=O)N[C@@H](Cc1ccccc1)C(=O)N[C@@H](CC(=O)O)C(N)=O [Example 6, Ac-L-P^a-F-F-D-NH2] (Ac-L[azaPro]FFD-NH2) |

| Molecule | remaining at 24 h, 0.2 μg/μl [1] [%] | remaining at 24 h, 0.2 μg/μl [2] [%] |
| --- | --- | --- |
| CC(=O)N[C@@H](CC(C)C)C(=O)N1CCC[C@H]1C(=O)NN(Cc1ccccc1)C(=O)N[C@@H](Cc1ccccc1)C(=O)N[C@@H](CC(=O)O)C(N)=O [Example 5, Ac-L-P-F^a-F-D-NH2] (Ac-LP[azaPhe]FD-NH2) | 93 | 71 |

— patent US20060281686A1, “Aza-peptides” (priority 2002, published 2006)
